Results on one molecule are retold here after article PMC11375702, “Early Preclinical Studies of Ergosterol Peroxide and Biological Evaluation of Its Derivatives” (ACS Omega, 2024).

The target of one data set is T1, hERG (Homo sapiens, UniProt Q12809).
T1 construct: expressed in transfected cells; host or cells: HEK-293
Nature of the data set: hERG channel inhibition assay (QPatch HTX, HEK-293). The data set is classed as cell-based. The conditions noted are these: human, HEK-293 cells that express hERG. How it is done: (§1) To assess potential cardiotoxicity, we performed the human ether-go-go-related gene (hERG) inhibition assay. […] Briefly, EP was tested at six concentrations (cumulative concentration–response). […] For hepatotoxicity determination, we performed the microsomal CYP inhibition assay. Briefly, EP was incubated at seven increasing concentrations with pooled human liver microsomes. […] The supernatants were analyzed by LC-MS/MS.

In the next data set the target is T2, hERG cardiac ion channel (Homo sapiens, UniProt Q12809).
T2 construct: expressed in transfected cells; host or cells: HEK-293
T2 sequence (Q12809 whole entry): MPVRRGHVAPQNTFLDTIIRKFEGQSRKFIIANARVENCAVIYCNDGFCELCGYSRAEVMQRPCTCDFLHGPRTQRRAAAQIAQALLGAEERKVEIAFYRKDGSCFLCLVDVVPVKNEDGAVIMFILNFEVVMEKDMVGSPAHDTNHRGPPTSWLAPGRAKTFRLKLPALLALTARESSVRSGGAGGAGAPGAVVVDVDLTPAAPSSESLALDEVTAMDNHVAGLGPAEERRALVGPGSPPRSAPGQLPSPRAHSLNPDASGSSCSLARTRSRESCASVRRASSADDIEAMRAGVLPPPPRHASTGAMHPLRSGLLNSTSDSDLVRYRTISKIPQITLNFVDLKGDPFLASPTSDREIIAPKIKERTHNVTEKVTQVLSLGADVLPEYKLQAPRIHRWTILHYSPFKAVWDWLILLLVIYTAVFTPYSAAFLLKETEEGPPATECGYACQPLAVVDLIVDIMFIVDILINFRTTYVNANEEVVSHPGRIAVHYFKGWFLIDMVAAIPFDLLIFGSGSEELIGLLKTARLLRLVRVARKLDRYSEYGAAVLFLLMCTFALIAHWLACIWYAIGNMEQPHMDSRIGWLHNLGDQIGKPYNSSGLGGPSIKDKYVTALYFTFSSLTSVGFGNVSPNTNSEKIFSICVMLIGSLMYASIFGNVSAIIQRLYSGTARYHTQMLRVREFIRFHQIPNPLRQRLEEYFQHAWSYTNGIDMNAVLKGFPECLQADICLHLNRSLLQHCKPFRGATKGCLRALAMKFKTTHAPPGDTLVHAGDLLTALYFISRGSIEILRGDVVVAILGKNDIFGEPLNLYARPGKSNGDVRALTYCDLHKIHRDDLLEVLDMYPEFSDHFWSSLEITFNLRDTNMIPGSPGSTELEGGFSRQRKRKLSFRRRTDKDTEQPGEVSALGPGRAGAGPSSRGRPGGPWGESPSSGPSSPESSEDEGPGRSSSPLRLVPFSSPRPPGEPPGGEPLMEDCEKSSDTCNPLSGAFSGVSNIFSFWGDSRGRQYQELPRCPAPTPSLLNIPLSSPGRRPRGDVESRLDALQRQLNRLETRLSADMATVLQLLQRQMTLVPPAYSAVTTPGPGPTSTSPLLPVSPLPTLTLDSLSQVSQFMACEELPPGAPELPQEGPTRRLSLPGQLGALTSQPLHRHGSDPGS
Described as above. The data set is classed as cell-based. The conditions noted are these: hERG tail-current; read-out: hERG pIC50 (converted). How it is done:
as §1

T1 sequence (Q12809 whole entry): as above

Regarding `CC(C)[C@@H](C)/C=C/[C@@H](C)[C@H]1CC[C@@H]2[C@]1(C)CC[C@H]1[C@]23C=C[C@]2(C[C@@H](O)CC[C@]12C)OO3` [Compound 2, Ergosterol peroxide], on hERG (0.1 μM, first addition), testing at 0.1 µM gave an inhibition of 1.99%. Also, the inhibition at 0.3 µM against hERG (0.3 μM, second addition) is 2.99%. Also, the inhibition at 1 µM on hERG (1 μM, 3rd addition) was 3.04%. Testing at 3 µM against hERG (3 μM, fourth addition) gave an inhibition of 6.21%. On hERG (10 μM, fifth addition), the inhibition at 10 µM was 10.1%. For the same molecule, on hERG (30 μM, sixth addition), the inhibition at 30 µM is 18.7%. Further, at hERG cardiac ion channel, the IC50 is more than 30.2 µM.
